Data taken from patent US8741836B2, “Polypeptides” (Novo Nordisk A/S, priority 2011, dated 2014).
Starred links: 1 amine or outer side, 2 acyl side, 3 side chain; linkers in the order of their positions; H or OH if unused. Positions of bridges follow the written chain, without caps; N, C: chain ends. Residues, ends and D or L forms follow the SMILES beside them. *: point of attachment. C20 diacid = O=C(O)CCCCCCCCCCCCCCCCCCC(=O)*; γGlu = O=C(O)[C@H](CCC(=O)[*:2])N[*:1]

System: ad libitum fed rat
Experiment: Assay (I) efficacy testing on appetite (food intake) using an ad libitum fed rat model
Format: in vivo, Sprague Dawley (SD) rats
Text: In the following examples reference is made to the following Assays: • Assay (I)—Experimental protocol for efficacy testing on appetite using an ad libitum fed rat model • ASSAY (II)a—Functional assay—Human calcitonin and amylin receptor assay • ASSAY (II)b—Functional assay—Rat calcitonin and rat amylin receptor assays • ASSAY (III)—ThT fibrillation assays for the assessment of physical stability of protein formulations • ASSAY (IV)—Determination of solubility • ASSAY (V)—Determination of binding to the human amylin receptor • ASSAY (VI)—Determination of the binding to the rat amylin receptor • ASSAY (VII)—Determination of binding to the human calcitonin receptor • ASSAY (VIII)—Determination of binding to the rat calcitonin receptor • ASSAY (IX)—pK—Determination of T½ in mini-pig • ASSAY (X)—pK—Determination of T½ in rat Assay (I)—Experimental protocol for Efficacy Testing on Appetite Using an Ad Libitum Fed Rat Model
Sprague Dawley (SD) rats from Taconic Europe, Denmark are used for the experiments. The rats have a body weight 200-250 g at the start of experiment. The rats arrive at least 10-14 days before start of experiment to allow acclimatization to experimental settings. During this period the animals are handled at least 2 times. After arrival rats are housed individually for one week in a reversed light/dark phase (meaning that lights are off during daytime and on during nighttime) […]. Since rats are normally active and eat their major part of their daily food intake during the dark period, rats are dosed in the morning right before lights are turned off. This set-up results in the lowest data variation and highest test sensitivity. The experiment is conducted in the rats' home cages and rats have free access to food and water throughout the acclimatization period and the experiment period. Each dose of derivative is tested in a group of 5-8 rats. A vehicle group of 6-8 rats is included in each set of testing. Rats are dosed once according to body weight with a 0.01-3 mg/kg solution administered intraperitoneally (ip), orally (po) or subcutaneously (sc). The time of dosing is recorded for each group. After dosing, the rats are returned to their home cages, where they then have access to food and water. The food consumption is recorded individually continuously by on-line registration or manually every hour for 7 hours, and then after 24 h and sometimes 48 h. At the end of the experimental session, the animals are euthanised.
The individual data are recorded in Microsoft excel sheets. Outliers are excluded after applying the Grubbs statistical evaluation test for outliers, and the result is presented graphically using the GraphPad Prism program.

SMILES | Food intake reduction 0-24 h 3 nmol/kg (%) (0-24 h) | Food intake reduction 24-48 h 3 nmol/kg (%) (24-48 h) | Food intake reduction 0-24 h 30 nmol/kg (%) (30 nmol/kg, 0-24 h) | Food intake reduction 24-48 h 30 nmol/kg (%) (30 nmol/kg, 24-48 h)
CC[C@H](C)[C@H](NC(=O)[C@@H]1CCCN1C(=O)CNC(=O)[C@H](Cc1ccccc1)NC(=O)[C@H](CC(N)=O)NC(=O)[C@H](CC(N)=O)NC(=O)[C@H](CO)NC(=O)[C@H](CO)NC(=O)[C@H](Cc1c[nH]cn1)NC(=O)[C@H](Cc1c[nH]cn1)NC(=O)[C@H](CC(C)C)NC(=O)[C@H](Cc1ccccc1)NC(=O)[C@H](CCC(=O)O)NC(=O)[C@H](C)NC(=O)[C@H](CC(C)C)NC(=O)[C@H](CCCNC(=N)N)NC(=O)[C@H](CCC(N)=O)NC(=O)[C@@H](NC(=O)[C@H](C)NC(=O)[C@@H]1CSSC[C@H](NC(=O)[C@H](Cc2c[nH]cn2)NC(=O)CC[C@H](NC(=O)CCCCCCCCCCCCCCCCCCC(=O)O)C(=O)O)C(=O)N[C@@H](CC(N)=O)C(=O)N[C@@H]([C@@H](C)O)C(=O)N[C@@H](C)C(=O)N[C@@H]([C@@H](C)O)C(=O)N1)[C@@H](C)O)C(=O)N[C@@H](CC(C)C)C(=O)N1CCC[C@H]1C(=O)N1CCC[C@H]1C(=O)N[C@H](C(=O)N[C@@H](CC(N)=O)C(=O)N[C@H](C(=O)NCC(=O)N[C@@H](CO)C(=O)N[C@@H](CC(N)=O)C(=O)N[C@H](C(=O)N1CCC[C@H]1C(N)=O)[C@@H](C)O)C(C)C)[C@@H](C)O [Example 84, N-alpha-[(S)-4-Carboxy-4-(19-carboxynonadecanoylamino)butyryl]-[His1,Glu14,His17,Pro37]-pramlintide] ({C20 diacid-γGlu}-HCNTATCATQRLAEFLHHSSNNFGPILPPTNVGSNTP-NH2; disulfide 2-7 (inferred)) | 68 | 67 | – | –
CC[C@H](C)[C@H](NC(=O)[C@@H]1CCCN1C(=O)CNC(=O)[C@H](Cc1ccccc1)NC(=O)[C@H](CC(N)=O)NC(=O)[C@H](CC(N)=O)NC(=O)[C@H](CO)NC(=O)[C@H](CO)NC(=O)[C@H](Cc1c[nH]cn1)NC(=O)[C@H](Cc1c[nH]cn1)NC(=O)[C@H](CC(C)C)NC(=O)[C@H](Cc1ccccc1)NC(=O)[C@H](CCC(=O)O)NC(=O)[C@H](C)NC(=O)[C@H](CC(C)C)NC(=O)[C@H](CCCNC(=N)N)NC(=O)[C@H](CCC(N)=O)NC(=O)[C@@H](NC(=O)[C@H](C)NC(=O)[C@@H]1CSSC[C@H](NC(=O)[C@H](Cc2c[nH]cn2)NC(=O)[C@H](Cc2c[nH]cn2)NC(=O)[C@H](Cc2c[nH]cn2)NC(=O)CC[C@H](NC(=O)CCCCCCCCCCCCCCCCCCC(=O)O)C(=O)O)C(=O)N[C@@H](CC(N)=O)C(=O)N[C@@H]([C@@H](C)O)C(=O)N[C@@H](C)C(=O)N[C@@H]([C@@H](C)O)C(=O)N1)[C@@H](C)O)C(=O)N[C@@H](CC(C)C)C(=O)N1CCC[C@H]1C(=O)N1CCC[C@H]1C(=O)N[C@H](C(=O)N[C@@H](CC(N)=O)C(=O)N[C@H](C(=O)NCC(=O)N[C@@H](CO)C(=O)N[C@@H](CC(N)=O)C(=O)N[C@H](C(=O)N[C@@H](Cc1ccc(O)cc1)C(N)=O)[C@@H](C)O)C(C)C)[C@@H](C)O [Example 11, N-alpha-[(S)-4-Carboxy-4-(19-carboxynonadecanoylamino)butyryl]-His-His-[His1,Glu14,His17]-pramlintide] ({C20 diacid-γGlu}-HHHCNTATCATQRLAEFLHHSSNNFGPILPPTNVGSNTY-NH2; disulfide 4-9 (inferred); C-terminus assumed) | – | – | 87 | 92
CC[C@H](C)[C@H](NC(=O)[C@@H]1CCCN1C(=O)CNC(=O)[C@H](Cc1ccccc1)NC(=O)[C@H](CC(N)=O)NC(=O)[C@H](CC(N)=O)NC(=O)[C@H](CO)NC(=O)[C@H](CO)NC(=O)[C@H](Cc1c[nH]cn1)NC(=O)[C@H](Cc1c[nH]cn1)NC(=O)[C@H](CC(C)C)NC(=O)[C@H](Cc1ccccc1)NC(=O)[C@H](CCC(=O)O)NC(=O)[C@H](C)NC(=O)[C@H](CC(C)C)NC(=O)[C@H](CCCNC(=N)N)NC(=O)[C@H](CCC(N)=O)NC(=O)[C@@H](NC(=O)[C@H](C)NC(=O)[C@@H]1CSSC[C@H](NC(=O)[C@H](Cc2c[nH]cn2)NC(=O)CC[C@H](NC(=O)CCCCCCCCCCCCCCCCCCC(=O)O)C(=O)O)C(=O)N[C@@H](CC(N)=O)C(=O)N[C@@H]([C@@H](C)O)C(=O)N[C@@H](C)C(=O)N[C@@H]([C@@H](C)O)C(=O)N1)[C@@H](C)O)C(=O)N[C@@H](CC(C)C)C(=O)N1CCC[C@H]1C(=O)N1CCC[C@H]1C(=O)N[C@H](C(=O)N[C@@H](CC(N)=O)C(=O)N[C@H](C(=O)NCC(=O)N[C@@H](CO)C(=O)N[C@@H](CC(N)=O)C(=O)N[C@H](C(=O)N[C@@H](Cc1ccc(O)cc1)C(N)=O)[C@@H](C)O)C(C)C)[C@@H](C)O [Example 18, N-alpha-[(S)-4-Carboxy-4-(19-carboxynonadecanoylamino)butyryl]-[His1,Glu14,His17]-pramlintide] ({C20 diacid-γGlu}-HCNTATCATQRLAEFLHHSSNNFGPILPPTNVGSNTY-NH2; disulfide 2-7) | 40 | 32 | – | –
CC[C@H](C)[C@H](NC(=O)[C@@H]1CCCN1C(=O)CNC(=O)[C@H](Cc1ccccc1)NC(=O)[C@H](CC(N)=O)NC(=O)[C@H](CC(N)=O)NC(=O)[C@H](CO)NC(=O)[C@H](CO)NC(=O)[C@H](Cc1c[nH]cn1)NC(=O)[C@H](Cc1c[nH]cn1)NC(=O)[C@H](CC(C)C)NC(=O)[C@H](Cc1ccccc1)NC(=O)[C@H](CCC(=O)O)NC(=O)[C@H](C)NC(=O)[C@H](CC(C)C)NC(=O)[C@H](CCCNC(=N)N)NC(=O)[C@H](CCC(N)=O)NC(=O)[C@@H](NC(=O)[C@H](C)NC(=O)[C@@H]1CSSC[C@H](NC(=O)[C@H](CCC(=O)O)NC(=O)CC[C@H](NC(=O)CCCCCCCCCCCCCCCCCCC(=O)O)C(=O)O)C(=O)N[C@@H](CC(N)=O)C(=O)N[C@@H]([C@@H](C)O)C(=O)N[C@@H](C)C(=O)N[C@@H]([C@@H](C)O)C(=O)N1)[C@@H](C)O)C(=O)N[C@@H](CC(C)C)C(=O)N1CCC[C@H]1C(=O)N1CCC[C@H]1C(=O)N[C@H](C(=O)N[C@@H](CC(N)=O)C(=O)N[C@H](C(=O)NCC(=O)N[C@@H](CO)C(=O)N[C@@H](CC(N)=O)C(=O)N[C@H](C(=O)N[C@@H](Cc1ccc(O)cc1)C(N)=O)[C@@H](C)O)C(C)C)[C@@H](C)O [Example 29, N-alpha-[(S)-4-Carboxy-4-(19-carboxynonadecanoylamino)butyryl]-[Glu1,Glu14,His17]-pramlintide] ({C20 diacid-γGlu}-ECNTATCATQRLAEFLHHSSNNFGPILPPTNVGSNTY-NH2; disulfide 2-7 (inferred); C-terminus assumed) | 15 | 5 | – | –
